The record followed here is ChEMBL document CHEMBL1201862, “PubChem BioAssay data set” (2004).

One assay has as its target Paired box protein Pax-8 (Homo sapiens, UniProt Q06710). Description: PAX8 transcriptional activity inhibition in RMG-I – RMG-I cells, luciferase, cherry-pick, dose response (AID 687027).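 Further: luciferase reporter driven by Pax8 target thyroperoxidase promoter measured by SteadyGlo luminescence.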 Format: functional, cell-based.
Assay [1] is described as follows: inhibitors acting on PAX2 in cells – cell-based, plate reader, dry powder samples, selectivity assay for PAX8 inhibitor project, dose response (AID 743048).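 Further: HEK293 cells carrying a WT1 promoter luciferase reporter driven by expressed Pax2; potency is for inhibition of Pax2 driven reporter signal.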 The format is functional.
Assay [2] is described as follows: COV362 cell viability loss – plate reader, dry powder, SA12, cytotoxicity control for PAX8 inhibitor project, dose response (AID 743144). Format: functional, cell-based.
A short description of assay [3]: A2780 cell killing – plate reader, dry powder samples, cytotoxicity control, dose response (AID 743046). Format: functional, cell-based.
A short description of assay [4]: OVCAR-3 cell viability loss – plate reader, dry powder samples, PAX8 inhibitor project, dose response (AID 743044). The format is functional, cell-based.
Assay [5] in a line: IGROV1 cell killing – plate reader, dry powder samples, PAX8 inhibitor project, dose response (AID 743043). Format: functional, cell-based. Conditions: IGROV-1.
Assay [6] is described as follows: OVCAR4 cell viability loss – plate reader, dry powder, SA11, cytotoxicity control for PAX8 inhibitor project, dose response (AID 743150). Format: functional, cell-based. Conditions: OVCAR-4.
Assay [7] in a line: COV434 cell viability loss – plate reader, dry powder, SA7, cytotoxicity control for PAX8 inhibitor project, dose response (AID 743145). Format: functional, cell-based.
The nature of assay [8]: OV-90 cell viability loss – plate reader, dry powder, SA8, PAX8 inhibitor project, dose response (AID 743149). Format: functional, cell-based.
Assay [9] can be described thus: PAX8-dependent cell viability loss – plate reader, dry powder, dose response (AID 743049). The format is functional, cell-based.
Assay [10] deals with T1, RNA-binding protein pos-1 (Caenorhabditis elegans, UniProt G5EF15).
T1 sequence (G5EF15 whole entry): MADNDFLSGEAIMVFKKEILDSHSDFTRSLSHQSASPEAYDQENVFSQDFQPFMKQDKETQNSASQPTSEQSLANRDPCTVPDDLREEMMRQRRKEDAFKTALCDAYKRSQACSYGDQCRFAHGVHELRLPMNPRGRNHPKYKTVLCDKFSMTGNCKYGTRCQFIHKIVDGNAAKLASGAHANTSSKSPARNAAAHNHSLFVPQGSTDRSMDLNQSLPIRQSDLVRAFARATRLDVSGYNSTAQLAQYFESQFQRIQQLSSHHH
The experiment in a line: disruptors of C. elegans POS-1 RNA interaction – biochemical, fluorescence polarization, dose response (AID 1964).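 Further: purified POS-1 fused to maltose binding protein made in E. coli; potency of compounds blocking POS-1 binding to fluorescent RNA.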

Assay [11] addresses T2, Zinc finger protein mex-5 (Caenorhabditis elegans, UniProt Q9XUB2).
T2 sequence (Q9XUB2 whole entry): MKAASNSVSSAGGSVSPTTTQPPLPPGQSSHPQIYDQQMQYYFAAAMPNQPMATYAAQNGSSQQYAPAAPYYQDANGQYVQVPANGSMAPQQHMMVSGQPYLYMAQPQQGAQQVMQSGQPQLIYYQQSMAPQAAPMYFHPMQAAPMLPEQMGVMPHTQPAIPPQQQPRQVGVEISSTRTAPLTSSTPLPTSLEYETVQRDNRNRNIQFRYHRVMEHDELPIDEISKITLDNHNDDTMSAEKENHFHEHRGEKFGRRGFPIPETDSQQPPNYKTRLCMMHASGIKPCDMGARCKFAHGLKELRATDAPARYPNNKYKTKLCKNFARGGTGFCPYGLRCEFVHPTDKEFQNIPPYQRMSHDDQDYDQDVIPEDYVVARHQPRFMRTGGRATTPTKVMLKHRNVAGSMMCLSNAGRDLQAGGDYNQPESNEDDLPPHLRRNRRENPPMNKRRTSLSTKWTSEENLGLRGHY
Description: potency of MEX-5 RNA-binding blockers – biochemical, C. elegans, fluorescence polarization, dose response (AID 1960).

In assay [12] the target is T3, High affinity choline transporter 1 (Homo sapiens, UniProt Q9GZV3).
T3 sequence (Q9GZV3 whole entry): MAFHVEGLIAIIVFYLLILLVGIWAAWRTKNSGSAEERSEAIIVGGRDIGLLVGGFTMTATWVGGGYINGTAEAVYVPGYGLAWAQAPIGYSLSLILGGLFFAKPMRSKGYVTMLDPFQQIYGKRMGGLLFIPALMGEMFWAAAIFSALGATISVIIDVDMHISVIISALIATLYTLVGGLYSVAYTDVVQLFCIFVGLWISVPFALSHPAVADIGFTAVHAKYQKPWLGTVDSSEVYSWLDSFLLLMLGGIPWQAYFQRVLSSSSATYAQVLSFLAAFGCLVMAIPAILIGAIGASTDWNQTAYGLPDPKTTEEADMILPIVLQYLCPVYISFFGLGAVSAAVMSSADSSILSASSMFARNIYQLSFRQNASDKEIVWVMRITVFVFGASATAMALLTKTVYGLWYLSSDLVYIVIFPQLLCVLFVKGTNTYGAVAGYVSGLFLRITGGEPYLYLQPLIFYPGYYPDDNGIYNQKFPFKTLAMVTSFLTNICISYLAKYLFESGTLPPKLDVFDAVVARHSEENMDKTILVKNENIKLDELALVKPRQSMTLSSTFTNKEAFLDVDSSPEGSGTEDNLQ
The experiment in a line: human choline transporter blockers, potency – cell-based, 5-point CRC, membrane potential dye, dose response (AID 504840). Format: functional.

For assay [13], the target named is Glutathione-S-transferase (Schistosoma japonicum, UniProt Q26513). The experiment in a line: GST-antibody interaction or FRET quenching – biochemical, TR-FRET, artefact control for Vif-APOBEC3G degradation inhibitor project, dose response (AID 1117362). Format: functional.
Chain of Glutathione-S-transferase (Q26513 whole entry): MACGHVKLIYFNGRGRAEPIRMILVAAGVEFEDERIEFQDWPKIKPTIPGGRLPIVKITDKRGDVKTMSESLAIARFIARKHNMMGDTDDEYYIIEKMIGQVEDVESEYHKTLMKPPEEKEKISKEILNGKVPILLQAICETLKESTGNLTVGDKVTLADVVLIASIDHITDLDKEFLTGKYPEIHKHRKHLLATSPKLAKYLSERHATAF
In assay [14] the target is NAD-dependent protein deacylase sirtuin-5, mitochondrial (Homo sapiens, UniProt Q9NXA8). The experiment in a line: blockers of sirtuin-5 peptide desuccinylation – biochemical, fluorescence imaging, cherry-pick, set 6, dose response (AID 720597).
Chain of NAD-dependent protein deacylase sirtuin-5, mitochondrial (Q9NXA8 whole entry): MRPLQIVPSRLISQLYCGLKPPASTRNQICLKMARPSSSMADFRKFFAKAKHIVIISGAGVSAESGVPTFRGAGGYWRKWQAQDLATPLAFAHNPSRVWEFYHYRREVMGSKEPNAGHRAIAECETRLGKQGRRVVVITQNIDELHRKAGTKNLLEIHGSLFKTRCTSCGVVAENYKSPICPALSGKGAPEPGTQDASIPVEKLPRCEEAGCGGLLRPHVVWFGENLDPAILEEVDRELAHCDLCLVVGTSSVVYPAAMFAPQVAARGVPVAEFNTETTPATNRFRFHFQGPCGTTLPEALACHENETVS
Assay [15] deals with T4, Methionyl-tRNA synthetase, putative (Trypanosoma brucei brucei, UniProt Q38C91).
T4 sequence (Q38C91 whole entry): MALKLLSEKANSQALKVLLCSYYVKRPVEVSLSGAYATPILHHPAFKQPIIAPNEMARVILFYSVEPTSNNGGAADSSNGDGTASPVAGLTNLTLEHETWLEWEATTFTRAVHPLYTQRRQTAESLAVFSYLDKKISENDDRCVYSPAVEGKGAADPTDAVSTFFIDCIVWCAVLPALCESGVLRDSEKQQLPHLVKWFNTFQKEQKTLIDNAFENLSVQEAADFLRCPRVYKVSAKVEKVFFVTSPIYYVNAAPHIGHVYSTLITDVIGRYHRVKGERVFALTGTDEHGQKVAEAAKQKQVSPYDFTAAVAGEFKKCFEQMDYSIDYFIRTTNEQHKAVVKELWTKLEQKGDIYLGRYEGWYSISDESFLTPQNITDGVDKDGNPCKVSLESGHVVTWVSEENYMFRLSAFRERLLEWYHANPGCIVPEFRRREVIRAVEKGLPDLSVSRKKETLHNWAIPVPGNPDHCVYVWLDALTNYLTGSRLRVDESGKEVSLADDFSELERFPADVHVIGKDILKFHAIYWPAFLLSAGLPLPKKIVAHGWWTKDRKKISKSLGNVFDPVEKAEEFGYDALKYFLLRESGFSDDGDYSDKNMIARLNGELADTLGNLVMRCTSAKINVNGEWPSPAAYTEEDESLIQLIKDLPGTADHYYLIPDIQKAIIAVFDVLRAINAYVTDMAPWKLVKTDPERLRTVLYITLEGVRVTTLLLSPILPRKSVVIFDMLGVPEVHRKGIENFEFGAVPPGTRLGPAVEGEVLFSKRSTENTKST
Format: functional, Trypanosoma brucei brucei strain 927/4 GUTat10.1.

Assay [16] is described as follows: Counterscreen for inhibitors of Trypanosoma brucei methionyl tRNA synthetase (MetRS): Luminescence-based cell-based high throughput dose response assay to identify compounds that are cytotoxic to Jurkat human T lymphocyte cells. Format: functional.
Assay [17] addresses T4, Methionyl-tRNA synthetase, putative. Format: functional, Trypanosoma brucei brucei strain 927/4 GUTat10.1. This is another data set of the same source.
Assay [18] in a line: Late stage counterscreen for inhibitors of Trypanosoma brucei methionyl tRNA synthetase (MetRS): Luminescence-based cell-based high throughput dose response assay to identify compounds that are cytotoxic to Jurkat human T lymphocyte cells. Format: functional.

Calls of active or inactive are those of the source.

Chain of Paired box protein Pax-8 (Q06710 whole entry): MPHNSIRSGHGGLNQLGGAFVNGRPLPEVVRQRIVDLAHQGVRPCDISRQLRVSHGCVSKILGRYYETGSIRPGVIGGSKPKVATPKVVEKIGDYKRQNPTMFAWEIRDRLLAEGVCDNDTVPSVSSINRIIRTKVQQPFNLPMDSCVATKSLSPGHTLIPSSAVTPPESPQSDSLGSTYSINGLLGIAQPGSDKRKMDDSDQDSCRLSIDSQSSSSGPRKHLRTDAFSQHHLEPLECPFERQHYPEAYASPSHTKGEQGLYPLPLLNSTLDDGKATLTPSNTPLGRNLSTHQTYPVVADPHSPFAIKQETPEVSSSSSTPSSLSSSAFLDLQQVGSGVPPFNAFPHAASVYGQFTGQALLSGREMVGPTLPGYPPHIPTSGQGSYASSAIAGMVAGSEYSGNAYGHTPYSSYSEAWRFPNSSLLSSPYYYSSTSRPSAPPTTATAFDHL

For the molecule `COc1cc(/C=C2\SC(=S)N(CCC(=O)N3CCCCC3)C2=O)cc(OC)c1OC`, the AC50 at Paired box protein Pax-8 was 8.62 µM (active); in assay [1], 69.6 µM (active); in [2], 31.2 µM (active); in [3] it was 26.3 µM (active); in assay [4], 15.5 µM (active); in [5] it was 13.1 µM (active). The concentration at half-maximal activity (AC50) in [6] was 43 µM (active); in [7], 26.8 µM (active); in assay [8] it was 35.9 µM (active); in [9], 15 µM (active).
As to `CCn1c2ccccc2c(=O)c2ccccc21`, the EC50 in assay [10] and in [11] was > 300 µM (not active) in each case. Moreover, in assay [12], the IC50 is 15.1 µM (active). Besides, the AC50 in the assay “cells” was 1.59 µM (active).
`COC(=O)/C(=N/Nc1ccccc1C)N1CCCc2ccccc21`: the IC50 in assay [13] is 1.9 µM (active).
For the molecule `O=C(C[C@H]1C[C@H]2c3cc(NC(=O)C4CCC4)ccc3O[C@H]2[C@H](CO)O1)NCCN1CCCCC1`, the AC50 in assay [14] is > 30 µM (inactive).
Turning to `O=C(NCc1nc2ccccc2[nH]1)C1=C[C@H](C2CC2)C[C@H](OCc2ccc(CO)cc2)O1`, the IC50 in [15] was 8.95 µM (active); in [16], 83.3 µM (inactive); in assay [17], 3.68 µM (active); in assay [18] it was > 83.3 µM (inactive).
